Here are results for seven molecules from patent US20240150841A1, “TAP63 REGULATED ONCOGENIC LONG NON-CODING RNAS” (H. LEE MOFFITT CANCER CENTER AND RESEARCH INSTITUTE, INC., priority 2021, published 2024).

One data set relates to CA1D cells. Kind of data set: Annexin V assay (apoptosis / cell death) time course in CA1D cells. In kind it is cell-based, human. The method, then: Cells were plated at a density of 1×10^4 cells in 6 replicates in a 96-well plate. Three biological replicates were performed per each assay. To evaluate cell proliferation, the cells were labelled for 3 h with […] EdU (5′-ethynyl-2′-deoxyuridine) and stained using the Click-iT EdU microplate assay (Invitrogen). Apoptosis was monitored by incubating the cells with Annexin V-Alexa Fluor 488 (Essen BioScience) according to the manufacturer's instructions Images were captured and percent of either cell proliferation or apoptosis was quantified using a high-throughput immunofluorescence plate reader and accompanying software (IncuCyte, Essen Bioscience).
To see how effective the administration of an anti-cancer treatment alone or in combination with siRNA targeting TROLL2 and/or TROLL-3 was, CA1D cells were administered treatment and […] of the cells was measured by Annexin V staining. As shown in FIGS. 14A-14F cells with high levels of TROLLs were either limited in response to treatment or resistant.

A further data set deals with TROLL-2. Kind of data set: qRT-PCR for TROLL-2 in triple negative breast cancer cells treated with drugs. It is filed as cell-based, human. The conditions noted are these: for expression of TROLL-2 following treatment: CA1D, BT-20, BT-549, MDA-MB-231, for at least 48 hours following treatment; for expression of TROLL-2 by the end of the 72 hour course: TNBC cell lines. The method, then:
(§1) Total RNA was prepared using TRIzol reagent (Invitrogen)5. For gene expression analysis, complementary DNA was synthesized from 5 μg of total RNA using the SuperScript II First-Strand Synthesis Kit (Invitrogen) according to the manufacturer's protocol followed by qRT-PCR using the TaqMan® Universal PCR Master Mix (Applied Biosystems). qRT-PCR was performed using a QuantStudio 6 flex PCR machine (Applied Biosystems) and each qRT-PCR was performed in triplicate.
(§2) We wanted to examiner the effects anti-cancer treatments on the level of TROLLs overtime.
(In general: Quantitative PCR measures a nucleic acid by following its amplification.)

Another data set deals with TROLL-3. Kind of data set: qRT-PCR for TROLL-3 in triple negative breast cancer cells treated with drugs. It is filed as cell-based, human. The following applies: for expression of TROLL-3 following treatment: CA1D, BT-20, BT-549, MDA-MB-231, for at least 48 hours following treatment; for expression of TROLL-3 by the end of the 72 hour course: TNBC cell lines. As to the method:
as §1, §2

Another data set concerns the target WDR26 (endogenous) (UniProt Q9H7D7).
Chain of UniProt Q9H7D7 (Q9H7D7 whole entry): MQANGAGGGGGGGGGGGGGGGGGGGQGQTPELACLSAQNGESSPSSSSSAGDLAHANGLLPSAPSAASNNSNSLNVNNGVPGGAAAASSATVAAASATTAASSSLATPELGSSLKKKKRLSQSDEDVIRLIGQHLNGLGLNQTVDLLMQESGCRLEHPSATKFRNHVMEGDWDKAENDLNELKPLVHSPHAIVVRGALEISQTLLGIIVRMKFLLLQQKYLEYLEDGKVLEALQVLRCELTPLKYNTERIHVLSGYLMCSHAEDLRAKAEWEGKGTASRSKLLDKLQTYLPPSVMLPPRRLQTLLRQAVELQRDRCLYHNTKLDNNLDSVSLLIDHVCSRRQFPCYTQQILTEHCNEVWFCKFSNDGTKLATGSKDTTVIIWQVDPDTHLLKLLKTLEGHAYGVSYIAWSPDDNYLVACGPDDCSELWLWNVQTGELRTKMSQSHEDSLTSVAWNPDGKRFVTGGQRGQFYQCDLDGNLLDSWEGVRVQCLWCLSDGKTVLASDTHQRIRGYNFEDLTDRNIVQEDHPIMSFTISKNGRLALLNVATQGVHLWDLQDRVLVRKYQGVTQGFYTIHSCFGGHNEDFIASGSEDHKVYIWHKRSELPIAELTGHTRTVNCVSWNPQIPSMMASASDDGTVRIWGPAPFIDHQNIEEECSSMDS

Counter-ions that a name gives are not always drawn.

Turning to `CCCCCOC(=O)Nc1nc(=O)n([C@@H]2O[C@H](C)[C@@H](O)[C@H]2O)cc1F` [capecitabine], in the data set with CA1D cells, the “response to drug in TNBC with high levels of TROLLs (in particular TROLL-2 and TROLL-3)” value is recorded as “resistance”; the “response to drug in TNBC with low levels of TROLLs (in particular TROLL-2 and TROLL-3)” value (“response to drug in TNBC with low levels” for short) is “partial response”. For the same molecule, in the data set with TROLL-2, the “expression of TROLL-2 following treatment” value was “reduced expression” and the “expression of TROLL-2 by the end of the 72 hour course” value is reported as “increased expression”. For the same molecule, in the data set on TROLL-3, the “expression of TROLL-3 following treatment” value is “reduced expression” and the “expression of TROLL-3 by the end of the 72 hour course” value is reported as “increased expression”.

On to `CC(=O)O[C@H]1C(=O)[C@@]2(C)[C@H]([C@H](OC(=O)c3ccccc3)[C@]3(O)C[C@H](OC(=O)[C@H](O)[C@@H](NC(=O)c4ccccc4)c4ccccc4)C(C)=C1C3(C)C)[C@]1(OC(C)=O)CO[C@@H]1C[C@@H]2O` [paclitaxel], for which, in the data set with CA1D cells, the “response to drug in TNBC with high levels of TROLLs (in particular TROLL-2 and TROLL-3)” value was “limited response”; the “response to drug in TNBC with low levels” value was “sensitivity”. For the same molecule, in the data set on TROLL-2, the “expression of TROLL-2 following treatment” value is “reduced expression”. In the data set with TROLL-3, the “expression of TROLL-3 following treatment” value is given as “reduced expression”.

With AKT (endogenous), the “AKT phosphorylation levels (pAKT S473, western blot)” value with WDR26 (endogenous) is given as “a decrease in AKT phosphorylation levels”.

`CC(=O)O[C@@]12CO[C@@H]1C[C@H](O)[C@@]1(C)C(=O)[C@H](O)C3=C(C)[C@@H](OC(=O)[C@H](O)[C@@H](NC(=O)OC(C)(C)C)c4ccccc4)C[C@@](O)([C@@H](OC(=O)c4ccccc4)[C@H]21)C3(C)C` [docetaxel]: in the data set with CA1D cells, the “response to drug in TNBC with high levels of TROLLs (in particular TROLL-2 and TROLL-3)” value is reported as “limited response”; the “response to drug in TNBC with low levels” value is given as “sensitivity”. Further, the “expression of TROLL-2 following treatment” value in the data set on TROLL-2 was “reduced expression”. Moreover, in the data set with TROLL-3, the “expression of TROLL-3 following treatment” value was “reduced expression”.

With `COc1cccc2c1C(=O)c1c(O)c3c(c(O)c1C2=O)C[C@@](O)(C(=O)CO)C[C@@H]3O[C@H]1C[C@H](N)[C@H](O)[C@H](C)O1` [Adriamycin, Doxorubicin Hydrochloride], in the data set on CA1D cells, the “response to drug in TNBC with high levels of TROLLs (in particular TROLL-2 and TROLL-3)” value is “limited response”; the “response to drug in TNBC with low levels” value was “sensitivity”. In the data set with TROLL-2, the “expression of TROLL-2 following treatment” value is given as “reduced expression” and the “expression of TROLL-2 by the end of the 72 hour course” value is given as “increased expression”. In addition, in the data set on TROLL-3, the “expression of TROLL-3 following treatment” value was “reduced expression” and the “expression of TROLL-3 by the end of the 72 hour course” value is listed as “increased expression”.

`O=P1(N(CCCl)CCCl)NCCCO1` (stereo not shown) [cyclophosphamide]: in the data set on CA1D cells, the “response to drug in TNBC with high levels of TROLLs (in particular TROLL-2 and TROLL-3)” value was “resistance”; the “response to drug in TNBC with low levels” value was “partial response”. For the same molecule, in the data set with TROLL-2, the “expression of TROLL-2 following treatment” value was “reduced expression”. In the data set with TROLL-3, the “expression of TROLL-3 following treatment” value is “reduced expression”.

In the case of `N.N.O=C([O-])C1(C(=O)[O-])CCC1.[Pt+2]` [carboplatin], in the data set with CA1D cells, the “response to drug in TNBC with high levels of TROLLs (in particular TROLL-2 and TROLL-3)” value was “resistance”; the “response to drug in TNBC with low levels” value is given as “partial response”. For the same molecule, in the data set with TROLL-2, the “expression of TROLL-2 following treatment” value is reported as “reduced expression” and the “expression of TROLL-2 by the end of the 72 hour course” value was “increased expression”. Besides, in the data set on TROLL-3, the “expression of TROLL-3 following treatment” value is “reduced expression” and the “expression of TROLL-3 by the end of the 72 hour course” value is “increased expression”.
